According to the supplement of paper PMC11208160:

Experiment: recombinant UMI read abundance after kanamycin selection (control-corrected) (log10(CPM+1)); higher = more efficient recombination; extreme values may be limits of the assay; sequences stand for … in AGTGCAGAGAAAATCGGCCAGTTTTCTCTGCCTGCAGTCCGCATGCCGTGGGACCCCTTGGGTTCTAACCTGTTGCCTAGATTTATGCAGCGGACTGCCTTTCTCCCAAAGTGATAAACCGG…AGGTTGGTTTCACT; site = the 11-nt donor
Outline: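 Sequencing read counts were converted to CPM, averaged over two replicates and scaled by control-derived factors. Results are given as log10(CPM+1). The reads covered the donor–target junction of recombinant UMIs from a pooled Escherichia coli screen of donor and donor-binding-loop pairs for the IS621 bridge recombinase.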
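Further: IS621 bridge recombinase in Escherichia coli cells against a fixed T5 target plasmid.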

Sequence	recombinant UMI read abundance (log10)
GAGGGTTCATGGACCGGTTTTCCCGGTAATCCGTATTTGCG (site GAGGGTTCTCG)	2.63
GAGGTTCCATGGACCGGTTTTCCCGGTAATCCGTATTTGGC (site GAGGTTCCTGC)	0
GAGTAATCATGGACCGGTTTTCCCGGTAATCCGTATTTGGG (site GAGTAATCTCC)	1.57
GAGTAGGCATGGACCGGTTTTCCCGGTAATCCGTATTTGAT (site GAGTAGGCTAT)	1.96
GAGTAGGCATGGACCGGTTTTCCCGGTAATCCGTATTTGGG (site GAGTAGGCTCC)	0.566
GAGTCATCATGGACCGGTTTTCCCGGTAATCCGTATTTGGT (site GAGTCATCTAC)	1.02
GAGTCCCCATGGACCGGTTTTCCCGGTAATCCGTATTTGTC (site GAGTCCCCTGA)	0.99
GAGTGATCATGGACCGGTTTTCCCGGTAATCCGTATTTGCT (site GAGTGATCTAG)	2.62
GAGTTCGCATGGACCGGTTTTCCCGGTAATCCGTATTTGGA (site GAGTTCGCTTC)	1.08
GATAAATCATGGACCGGTTTTCCCGGTAATCCGTATTTGAC (site GATAAATCTGT)	1.03
GATAAGTCATGGACCGGTTTTCCCGGTAATCCGTATTTGCC (site GATAAGTCTGG)	2.1
GATACGACATGGACCGGTTTTCCCGGTAATCCGTATTTGTT (site GATACGACTAA)	0.259
GATACTGCATGGACCGGTTTTCCCGGTAATCCGTATTTGCA (site GATACTGCTTG)	1.61
GATACTGCATGGACCGGTTTTCCCGGTAATCCGTATTTGTC (site GATACTGCTGA)	1.28
GATAGGTCATGGACCGGTTTTCCCGGTAATCCGTATTTGGA (site GATAGGTCTTC)	1.15
GATATAGCATGGACCGGTTTTCCCGGTAATCCGTATTTGGT (site GATATAGCTAC)	1.08
GATATATCATGGACCGGTTTTCCCGGTAATCCGTATTTGCG (site GATATATCTCG)	1.42
GATCAAACATGGACCGGTTTTCCCGGTAATCCGTATTTGAA (site GATCAAACTTT)	0
GATCCCTCATGGACCGGTTTTCCCGGTAATCCGTATTTGGC (site GATCCCTCTGC)	0.839
GATCCGTCATGGACCGGTTTTCCCGGTAATCCGTATTTGCG (site GATCCGTCTCG)	0.274
GATCCTACATGGACCGGTTTTCCCGGTAATCCGTATTTGCT (site GATCCTACTAG)	0.00962
GATCCTTCATGGACCGGTTTTCCCGGTAATCCGTATTTGTC (site GATCCTTCTGA)	0.252
GATCTCTCATGGACCGGTTTTCCCGGTAATCCGTATTTGAT (site GATCTCTCTAT)	0.578
GATGACACATGGACCGGTTTTCCCGGTAATCCGTATTTGTC (site GATGACACTGA)	1.18
GATGACTCATGGACCGGTTTTCCCGGTAATCCGTATTTGGT (site GATGACTCTAC)	2.49

Sequence	recombinant UMI read abundance (log10)
GATGCAGCATGGACCGGTTTTCCCGGTAATCCGTATTTGTA (site GATGCAGCTTA)	1.62
GATGCAGCATGGACCGGTTTTCCCGGTAATCCGTATTTGTT (site GATGCAGCTAA)	0.749
GATGTACCATGGACCGGTTTTCCCGGTAATCCGTATTTGGC (site GATGTACCTGC)	0.247
GATTACTCATGGACCGGTTTTCCCGGTAATCCGTATTTGTC (site GATTACTCTGA)	1.09
GATTATCCATGGACCGGTTTTCCCGGTAATCCGTATTTGCC (site GATTATCCTAG)	0
GATTATCCATGGACCGGTTTTCCCGGTAATCCGTATTTGCC (site GATTATCCTCG)	0
GATTATCCATGGACCGGTTTTCCCGGTAATCCGTATTTGCC (site GATTATCCTGG)	0
GATTATCCATGGACCGGTTTTCCCGGTAATCCGTATTTGCC (site GATTATCCTTG)	0
GATTCATCATGGACCGGTTTTCCCGGTAATCCGTATTTGCG (site GATTCATCTCG)	1.2
GATTCGGCATGGACCGGTTTTCCCGGTAATCCGTATTTGAC (site GATTCGGCTGT)	0.484
GATTGCGCATGGACCGGTTTTCCCGGTAATCCGTATTTGCG (site GATTGCGCTCG)	0.805
GATTGGACATGGACCGGTTTTCCCGGTAATCCGTATTTGAT (site GATTGGACTAT)	0.838
GATTGGACATGGACCGGTTTTCCCGGTAATCCGTATTTGAT (site GATTGGACTCT)	0.0264
GATTGGACATGGACCGGTTTTCCCGGTAATCCGTATTTGAT (site GATTGGACTGT)	0
GATTGGACATGGACCGGTTTTCCCGGTAATCCGTATTTGAT (site GATTGGACTTT)	0.0212
GATTGGACATGGACCGGTTTTCCCGGTAATCCGTATTTGCC (site GATTGGACTGA)	0
GATTGGACATGGACCGGTTTTCCCGGTAATCCGTATTTGCC (site GATTGGACTGC)	0
GATTGGACATGGACCGGTTTTCCCGGTAATCCGTATTTGCC (site GATTGGACTGG)	2.68
GATTGGACATGGACCGGTTTTCCCGGTAATCCGTATTTGCC (site GATTGGACTGT)	0
GATTGGACATGGACCGGTTTTCCCGGTAATCCGTATTTGTC (site GATTGGACTGA)	0.657
GATTGGACATGGACCGGTTTTCCCGGTAATCCGTATTTGTC (site GATTGGACTGC)	0
GATTGGACATGGACCGGTTTTCCCGGTAATCCGTATTTGTC (site GATTGGACTGG)	0.913
GATTGGACATGGACCGGTTTTCCCGGTAATCCGTATTTGTC (site GATTGGACTGT)	0.172
GATTTATCATGGACCGGTTTTCCCGGTAATCCGTATTTGTC (site GATTTATCTGA)	0.525
GATTTCGCATGGACCGGTTTTCCCGGTAATCCGTATTTGGG (site GATTTCGCTCC)	0.00434

Sequence	recombinant UMI read abundance (log10)
GCAAACGCATGGACCGGTTTTCCCGGTAATCCGTATTTGTG (site GCAAACGCTCA)	1.98
GCAACTACATGGACCGGTTTTCCCGGTAATCCGTATTTGTG (site GCAACTACTCA)	1.17
GCAAGTGCATGGACCGGTTTTCCCGGTAATCCGTATTTGTC (site GCAAGTGCTGA)	0
GCAATATCATGGACCGGTTTTCCCGGTAATCCGTATTTGCA (site ACAGTATCTTG)	1.37
GCAATATCATGGACCGGTTTTCCCGGTAATCCGTATTTGCA (site GCAATATCTTG)	1.75
GCAATTCCATGGACCGGTTTTCCCGGTAATCCGTATTTGAG (site GCAATTCCTCT)	0.651
GCAATTGCATGGACCGGTTTTCCCGGTAATCCGTATTTGCC (site GCAATTGCTGG)	0
GCAATTTCATGGACCGGTTTTCCCGGTAATCCGTATTTGTA (site GCAATTTCTTA)	2.26
GCACATGCATGGACCGGTTTTCCCGGTAATCCGTATTTGGA (site GCACATGCTTC)	1.05
GCACCTTCATGGACCGGTTTTCCCGGTAATCCGTATTTGTT (site GCACCTTCTAA)	1.09
GCACGATCATGGACCGGTTTTCCCGGTAATCCGTATTTGTA (site GCACGATCTTA)	2.74
GCACTGCCATGGACCGGTTTTCCCGGTAATCCGTATTTGCT (site GCACTGCCTAG)	1.41
GCACTTCCATGGACCGGTTTTCCCGGTAATCCGTATTTGTT (site GCACTTCCTAA)	0.561
GCAGAAACATGGACCGGTTTTCCCGGTAATCCGTATTTGGC (site GCAGAAACTGC)	2.87
GCAGTAGCATGGACCGGTTTTCCCGGTAATCCGTATTTGCC (site GCAGTAGCTGG)	0.831
GCAGTGGCATGGACCGGTTTTCCCGGTAATCCGTATTTGGT (site GAAGTGGCTAC)	0.0767
GCAGTGGCATGGACCGGTTTTCCCGGTAATCCGTATTTGGT (site GCAGTGGCTAC)	0.668
GCAGTGGCATGGACCGGTTTTCCCGGTAATCCGTATTTGGT (site GGAGTGGCTAC)	0.276
GCAGTGGCATGGACCGGTTTTCCCGGTAATCCGTATTTGGT (site GTAGTGGCTAC)	0.0239
GCATACCCATGGACCGGTTTTCCCGGTAATCCGTATTTGAC (site GCATACCCTGT)	1.04
GCATCAGCATGGACCGGTTTTCCCGGTAATCCGTATTTGTG (site GCATCAGCTCA)	1.49
GCATGGGCATGGACCGGTTTTCCCGGTAATCCGTATTTGAG (site GCATGGGCTCT)	1.33
GCATTATCATGGACCGGTTTTCCCGGTAATCCGTATTTGGC (site GCATTATCTGC)	2.82
GCCAAGCCATGGACCGGTTTTCCCGGTAATCCGTATTTGTA (site GCCAAGCCTTA)	1.69
GCCAAGCCATGGACCGGTTTTCCCGGTAATCCGTATTTGTA (site GCCACGCCTTA)	0.00534
